Earlier results as cited in patent US20120277309A1, “METHODS OF CONTROLLING VENOUS IRRITATION ASSOCIATED WITH THE TREATMENT OF A CARDIAC DISORDER” (BAXTER HEALTHCARE S.A., priority 2011, published 2012).
Counter-ions that a name gives are not always drawn.

Columns and labels:
[1] = packaging insert, Baxter; incidence increases with concentration
beta-adrenergic = details: disclosed in WO 88/01614

Row | Compound | Venous irritation in patients on infusion [1] | Potency as a beta-adrenergic-blocking agent relative to an equivalent amount of the racemic mixture (beta-adrenergic)
1 | COC(=O)CCc1ccc(OCC(O)CNC(C)C)cc1 (racemic) [R,S-esmolol hydrochloride, methyl-3-[4-(2-hydroxy-3-isopropylamino)propoxy]phenylpropionate hydrochloride] | A significant number of patients experience venous irritation at the infusion site | 
2 | COC(=O)CCc1ccc(OC[C@@H](O)CNC(C)C)cc1.Cl (single isomer, unassigned) [S-isomer of esmolol hydrochloride] |  | about twice
